{
  "source": "patent US8003675B2",
  "about": "(priority 2006, dated 2011)",
  "key": {"Pyricularia oryzae": {"tested_on": "Pyricularia oryzae", "assay_type": "in vivo", "settings": "paddy rice (Aichi Asahi), submerged application, 10 g a.i./10 a, inoculated 10 days after treatment, lesions counted 6 days after inoculation"}, "[1]": {"tested_on": "Colletotrichum orbiculare", "experiment": "Test for preventive effect for cucumber anthracnose", "assay_type": "in vivo", "settings": "cucumber (Sagamihanjiro), soil drench 10 ml at 1 ppm, inoculated 7 days later, lesions counted 7 days later", "description": "Four cucumber seeds (variety: Sagamihanjiro) were sowed in a plastic cup of 5.5 cm in diameter, at a depth of 2 cm, and were grown in a greenhouse for 7 days. One of wettable powders prepared according to Example 5 was diluted with water so that the concentration of active ingredient became a given level. 10 ml of the dilution was poured into the soil at the root of young cucumber seedlings having cotyledons. 7 days later, a conidia suspension (10^5 to 10^6/ml) of Colletotrichum orbiculare which had been cultured in a PDA plate medium, was uniformly inoculated to the cucumber plant by hand spraying. The cup was allowed to stand, for infection, in a moist chamber of 25° C. for 24 hours. Then, the cup was allowed to stand on a basin in a glass greenhouse and, 7 day later, the number of lesions of all cotyledons in pot was examined. A protective value was calculated from the above expression 1 and evaluated according to the standard of Table 12.\nUsing the above-shown comparative compound, a wettable powder was prepared according to Example 5. A protective value thereof was calculated in the same manner as in the above Test Example."}, "Stagonospora nodorum": {"tested_on": "Stagonospora nodorum", "experiment": "Test for preventive effect on wheat glume blotch", "assay_type": "in vivo", "settings": "wheat (Nohrin No. 61), foliar spray 500 ppm, examined 12 days after inoculation", "description": "Disease development degree=[(n0×0+n1×1+n2×2+n3×3+n4×4)/4×N]×100 [Expression 2]\nn4: number of leaves of disease development degree 4 Protective value=[1−(disease development degree in treated plants)/(disease development degree in untreated plants)]×100 [Expression 3]\n10 wheat seeds (variety: Nohrin No. 61) were sowed in a plastic cup of 5.5 cm in diameter and were grown in a greenhouse for 7 days. One of wettable powders prepared in accordance with Example 5 was diluted with water so that the concentration of active ingredient became 500 ppm, a spreader (brand name: KUMITEN) was added for the dilution factor to be 3,000 times, and a sufficient amount of the resulting solution was sprayed onto the leaves of wheat (1.5- to 2-leaf stage) using a spray gun. After air-drying, a suspension of the pycniospores of Stagonospora nodorum was sprayed for inoculation. Immediately thereafter, the wheat leaves were transferred into a moist chamber of 25° C. and allowed to stand under a bright condition for 48 hours for infection. Then, the wheat leaves were transferred into the greenhouse and, 12 days after the inoculation, the disease development index of each first leaf was examined according to the standard of Table 15. A disease development degree was calculated from the above expression 2. A protective value (%) was calculated from the above expression 3 and evaluated according to the standard of Table 16."}},
  "data": [
    {"molecule": "Cc1cc(COC(=O)c2cc(C)ns2)sn1", "note": "[Comparative compound, reference compound]", "values": [
      {"measurement": "Evaluation", "setting": "Pyricularia oryzae", "result": "D (protective value: less than 50.0%)"},
      {"measurement": "Protective value", "setting": "Pyricularia oryzae", "result": 45.9, "unit": "%"},
      {"measurement": "Evaluation", "setting": "[1]", "result": "C (protective value: less than 80.0% to 50.0% or more)"},
      {"measurement": "Protective value", "setting": "[1]", "result": 73.3, "unit": "%"},
      {"measurement": "Evaluation", "setting": "Stagonospora nodorum", "result": "D (protective value: less than 25%)"}
    ]},
    {"molecule": "CC(=O)OCc1snc(Cl)c1Cl", "note": "[I-1]", "values": [
      {"measurement": "Evaluation", "setting": "Pyricularia oryzae", "result": "A (protective value: 100% to 90.0% or more)"},
      {"measurement": "Protective value", "setting": "Pyricularia oryzae", "result": 96.1, "unit": "%"},
      {"measurement": "Evaluation", "setting": "[1]", "result": "B (protective value: less than 90.0% to 80.0% or more)"},
      {"measurement": "Protective value", "setting": "[1]", "result": 86.9, "unit": "%"}
    ]},
    {"molecule": "CC=CC=CC(=O)OCc1snc(Cl)c1Cl", "note": "[I-24]", "values": [
      {"measurement": "Evaluation", "setting": "Pyricularia oryzae", "result": "A (protective value: 100% to 90.0% or more)"},
      {"measurement": "Protective value", "setting": "Pyricularia oryzae", "result": 95.2, "unit": "%"},
      {"measurement": "Evaluation", "setting": "[1]", "result": "B (protective value: less than 90.0% to 80.0% or more)"},
      {"measurement": "Protective value", "setting": "[1]", "result": 89.1, "unit": "%"}
    ]},
    {"molecule": "CC(=S)OCc1snc(Cl)c1Cl", "note": "[I-28, (3,4-dichloroisothiazol-5-yl)methyl thioacetate]", "values": [
      {"measurement": "Evaluation", "setting": "Pyricularia oryzae", "result": "C (protective value: less than 80.0% to 50.0% or more)"},
      {"measurement": "Protective value", "setting": "Pyricularia oryzae", "result": 79.9, "unit": "%"}
    ]},
    {"molecule": "O=C(OCc1snc(Cl)c1Cl)c1ccccc1", "note": "[II-1, (3,4-dichloroisothiazol-5-yl)methyl benzoate]", "values": [
      {"measurement": "Evaluation", "setting": "Pyricularia oryzae", "result": "A (protective value: 100% to 90.0% or more)"},
      {"measurement": "Protective value", "setting": "Pyricularia oryzae", "result": 92.3, "unit": "%"},
      {"measurement": "Evaluation", "setting": "[1]", "result": "B (protective value: less than 90.0% to 80.0% or more)"},
      {"measurement": "Protective value", "setting": "[1]", "result": 89.1, "unit": "%"},
      {"measurement": "melting point", "result": "79 to 80", "unit": "°C"}
    ]},
    {"molecule": "Cc1ccccc1C(=O)OCc1snc(Cl)c1Cl", "note": "[II-5]", "values": [
      {"measurement": "Evaluation", "setting": "Pyricularia oryzae", "result": "A (protective value: 100% to 90.0% or more)"},
      {"measurement": "Protective value", "setting": "Pyricularia oryzae", "result": 94.6, "unit": "%"},
      {"measurement": "Evaluation", "setting": "Stagonospora nodorum", "result": "A (protective value: 100% to 75% or more)"}
    ]},
    {"molecule": "O=C(OCc1snc(Cl)c1Cl)c1ccccc1Cl", "note": "[II-14]", "values": [
      {"measurement": "Evaluation", "setting": "Pyricularia oryzae", "result": "A (protective value: 100% to 90.0% or more)"},
      {"measurement": "Protective value", "setting": "Pyricularia oryzae", "result": 92.4, "unit": "%"},
      {"measurement": "Evaluation", "setting": "Stagonospora nodorum", "result": "B (protective value: less than 75% to 50% or more)"}
    ]},
    {"molecule": "N#Cc1ccccc1C(=O)OCc1snc(Cl)c1Cl", "note": "[II-17]", "values": [
      {"measurement": "Evaluation", "setting": "Pyricularia oryzae", "result": "A (protective value: 100% to 90.0% or more)"},
      {"measurement": "Protective value", "setting": "Pyricularia oryzae", "result": 98.2, "unit": "%"}
    ]},
    {"molecule": "COC(=O)c1ccccc1C(=O)OCc1snc(Cl)c1Cl", "note": "[II-24]", "values": [
      {"measurement": "Evaluation", "setting": "Pyricularia oryzae", "result": "A (protective value: 100% to 90.0% or more)"},
      {"measurement": "Protective value", "setting": "Pyricularia oryzae", "result": 98.3, "unit": "%"},
      {"measurement": "Evaluation", "setting": "Stagonospora nodorum", "result": "A (protective value: 100% to 75% or more)"}
    ]},
    {"molecule": "O=C(OCc1snc(Cl)c1Cl)c1ccccc1[N+](=O)[O-]", "note": "[II-55]", "values": [
      {"measurement": "Evaluation", "setting": "Pyricularia oryzae", "result": "A (protective value: 100% to 90.0% or more)"},
      {"measurement": "Protective value", "setting": "Pyricularia oryzae", "result": 98.8, "unit": "%"},
      {"measurement": "Evaluation", "setting": "Stagonospora nodorum", "result": "A (protective value: 100% to 75% or more)"}
    ]},
    {"molecule": "COc1ccccc1C(=O)OCc1snc(Cl)c1Cl", "note": "[II-57]", "values": [
      {"measurement": "Evaluation", "setting": "Pyricularia oryzae", "result": "A (protective value: 100% to 90.0% or more)"},
      {"measurement": "Protective value", "setting": "Pyricularia oryzae", "result": 98.4, "unit": "%"},
      {"measurement": "Evaluation", "setting": "Stagonospora nodorum", "result": "A (protective value: 100% to 75% or more)"}
    ]},
    {"molecule": "CS(=O)(=O)c1ccccc1C(=O)OCc1snc(Cl)c1Cl", "note": "[II-66]", "values": [
      {"measurement": "Evaluation", "setting": "Pyricularia oryzae", "result": "A (protective value: 100% to 90.0% or more)"},
      {"measurement": "Protective value", "setting": "Pyricularia oryzae", "result": 97.8, "unit": "%"},
      {"measurement": "Evaluation", "setting": "Stagonospora nodorum", "result": "A (protective value: 100% to 75% or more)"}
    ]},
    {"molecule": "Cc1cccc(C)c1C(=O)OCc1snc(Cl)c1Cl", "note": "[II-77]", "values": [
      {"measurement": "Evaluation", "setting": "Pyricularia oryzae", "result": "C (protective value: less than 80.0% to 50.0% or more)"},
      {"measurement": "Protective value", "setting": "Pyricularia oryzae", "result": 74.1, "unit": "%"},
      {"measurement": "Evaluation", "setting": "Stagonospora nodorum", "result": "A (protective value: 100% to 75% or more)"}
    ]},
    {"molecule": "O=C(OCc1snc(Cl)c1Cl)c1c(Cl)cccc1Cl", "note": "[II-78]", "values": [
      {"measurement": "Evaluation", "setting": "Pyricularia oryzae", "result": "C (protective value: less than 80.0% to 50.0% or more)"},
      {"measurement": "Protective value", "setting": "Pyricularia oryzae", "result": 77.5, "unit": "%"},
      {"measurement": "Evaluation", "setting": "Stagonospora nodorum", "result": "B (protective value: less than 75% to 50% or more)"}
    ]},
    {"molecule": "COc1cccc(OC)c1C(=O)OCc1snc(Cl)c1Cl", "note": "[II-79]", "values": [
      {"measurement": "Evaluation", "setting": "Pyricularia oryzae", "result": "A (protective value: 100% to 90.0% or more)"},
      {"measurement": "Protective value", "setting": "Pyricularia oryzae", "result": 92.3, "unit": "%"},
      {"measurement": "Evaluation", "setting": "Stagonospora nodorum", "result": "A (protective value: 100% to 75% or more)"}
    ]},
    {"molecule": "Cc1cccc([N+](=O)[O-])c1C(=O)OCc1snc(Cl)c1Cl", "note": "[II-82]", "values": [
      {"measurement": "Evaluation", "setting": "Pyricularia oryzae", "result": "B (protective value: less than 90.0% to 80.0% or more)"},
      {"measurement": "Protective value", "setting": "Pyricularia oryzae", "result": 88.0, "unit": "%"},
      {"measurement": "Evaluation", "setting": "Stagonospora nodorum", "result": "A (protective value: 100% to 75% or more)"}
    ]}
  ]
}
